Test results taken from ChEMBL document CHEMBL5360649, “Potential Broad-Spectrum Antimicrobial, Wound Healing, and Disinfectant Cationic Peptide Crafted from Snake Venom” (J Med Chem, 2023).
The source made the active and inactive calls. The calls are words filed in the database; no cut-off is given here.

Tests used:
Klebsiella pneumoniae [1] = test: Bactericidal activity against Klebsiella pneumoniae ATCC BAA-1705 assessed as reduction in bacterial growth incubated for 24 hrs by Mueller Hinton Agar based plate analysis; format: functional
Staphylococcus aureus [2] = test: Bactericidal activity against patient-derived Staphylococcus aureus assessed as reduction in bacterial growth incubated for 24 hrs by Mueller Hinton Agar based plate analysis; format: functional
Escherichia coli [3] = test: Induction of morphological changes in Escherichia coli assessed as cell blebbing at MIC concentration incubated for 60 mins by SEM analysis; format: functional, organism-based
Staphylococcus aureus [4] = test: Induction of morphological changes in methicillin-resistant Staphylococcus aureus at MIC concentration incubated for 60 mins by SEM analysis; format: functional, organism-based
Staphylococcus aureus [5] = test: Induction of morphological changes in methicillin-resistant Staphylococcus aureus assessed as abnormal cell shrinkage at MIC concentration incubated for 60 mins by SEM analysis; format: functional, organism-based
Klebsiella pneumoniae [6] = test: Antibiofilm activity against Klebsiella pneumoniae assessed as biofilm eradication at 0.5 times of MIC incubated for 24 hrs by CV staining based analysis relative to control; format: functional
RAW264.7 = test: Antiinflammatory activity in LPS-induced mouse RAW264.7 cells assessed as increase in TGF-beta1 expression at 5 to 10 uM incubated for 24 hrs by radioimmunoprecipitation based dot-plot analysis; format: functional, cell-based; conditions: dose 5-10 µM
Rattus norvegicus [7] = species: Rattus norvegicus; test: Induction of wound healing in surgically-induced Albino Wistar rat wound model assessed as proper formation of hair follicles at 10 uM measured after 11 days by H&E staining based analysis; format: functional; conditions: time 11.0 day
[8] = Cytotoxicity against human WI-38 cells assessed as cell viability at 12.5 uM incubated for 24 hrs by MTT assay relative to control; format: toxicity, cell-based; conditions: read-out: Activity
[9] = Cytotoxicity against human A549 cells assessed as cell viability at 12.5 uM incubated for 24 hrs by MTT assay relative to control; format: toxicity, cell-based; conditions: read-out: Activity
Pseudomonas aeruginosa [10] = test: Antibacterial activity against Pseudomonas aeruginosa assessed as inhibition of bacterial growth at 1.25 to 40 uM incubated for 8 hrs by microtiter plate reader analysis; format: functional, organism-based; conditions: dose 1.25-40 µM
Pseudomonas aeruginosa [11] = test: Antibacterial activity against Pseudomonas aeruginosa assessed as inhibition of bacterial growth at 1.25 to 40 uM by microtiter plate reader analysis; format: functional, organism-based; conditions: dose 1.25-40 µM, time 0.5-8.5 hrs, TDE = time-dependent effect
Klebsiella pneumoniae [12] = test: Antibiofilm activity against Klebsiella pneumoniae assessed as clearance of preformed biofilm at 1 times of MIC incubated for 24 hrs by CV staining based analysis relative to control; format: functional
Pseudomonas aeruginosa [13] = test: Bactericidal activity against patient-derived Pseudomonas aeruginosa assessed as reduction in bacterial growth incubated for 24 hrs by Mueller Hinton Agar based plate analysis; format: functional
Pseudomonas aeruginosa [14] = test: Antibiofilm activity against Pseudomonas aeruginosa assessed as biofilm eradication at 1 times of MIC incubated for 24 hrs by CV staining based analysis relative to control; format: functional
NMDF = test: Induction of cell migration in NMDF cells at 10 uM incubated for 24 hrs by wound healing scratch/mirgation assay; format: functional, cell-based; conditions: Mus musculus
Klebsiella pneumoniae [15] = test: Antibiofilm activity against preformed biofilm in Klebsiella pneumoniae assessed as decrease in cell viability at 0.5 times of MIC incubated overnight by MTT assay relative to control; format: functional
Pseudomonas aeruginosa [16] = test: Antibacterial activity against Pseudomonas aeruginosa assessed as induction of cellular damage at MIC concentration incubated for 30 mins by SYTO9/PI staining based fluorescence microscopic analysis; format: functional, organism-based
Cell membrane [17] = test: Induction of outer membrane permeabilization in methicillin-resistant Staphylococcus aureus at 0.5 to 1 times of MIC incubated for 5 to 20 mins by fluorescence based NPN uptake assay; format: subcellular; conditions: time 5-20 min
Staphylococcus aureus [18] = test: Induction of morphological changes in methicillin-resistant Staphylococcus aureus assessed as cellular destruction at MIC concentration incubated for 6 hrs by SEM analysis; format: functional, organism-based
Escherichia coli [19] = test: Bactericidal activity against Escherichia coli ATCC CRM-11229 assessed as reduction in bacterial growth incubated for 24 hrs by Mueller Hinton Agar based plate analysis; format: functional
Lipopolysaccharide (LPS) = test: Induction of Escherichia coli O111:B4 Lipopolysaccharide aggregate degradation at 40 uM incubated for 4 hrs by ESI-LC/MS analysis
Rattus norvegicus [20] = species: Rattus norvegicus; test: Induction of wound healing in surgically-induced Albino Wistar rat wound model assessed as reduction in inflammatory activity at 10 uM measured after 11 days by H&E staining based analysis; format: functional; conditions: time 11.0 day
Staphylococcus aureus [21] = test: Induction of morphological changes in methicillin-resistant Staphylococcus aureus at MIC concentration incubated for 6 hrs by SEM analysis; format: functional, organism-based
Escherichia coli [22] = test: Induction of morphological changes in Escherichia coli at MIC concentration incubated for 60 mins by SEM analysis; format: functional, organism-based
Staphylococcus aureus [23] = test: Antibacterial activity against methicillin-resistant Staphylococcus aureus assessed as induction of cellular damage at MIC concentration incubated for 30 mins by SYTO9/PI staining based fluorescence microscopic analysis; format: functional, organism-based
Escherichia coli [24] = test: Antibacterial activity against Escherichia coli assessed as induction of cellular damage at MIC concentration incubated for 30 mins by SYTO9/PI staining based fluorescence microscopic analysis; format: functional, organism-based
[25] = Stability in human serum assessed as half-life at 1 mM by HPLC analysis; format: ADME, cell-free
Klebsiella pneumoniae [26] = test: Antibacterial activity against carbapenem resistant Klebsiella pneumoniae ATCC BAA-1705 assessed as inhibition of bacterial growth incubated for 8 hrs at 1.25 to 40 uM by microtiter plate reader analysis; format: functional, organism-based; conditions: dose 1.25-40 µM
Klebsiella pneumoniae [27] = test: Antibacterial activity against Klebsiella pneumoniae assessed as cell division block by measuring cellular elongation at 0.5 to 1 times of MIC incubated for 30 mins by SYTO9/PI staining based fluorescence microscopic analysis; format: functional, organism-based
[28] = Cytotoxicity against mouse RAW264.7 cells assessed as cell viability at 12.5 uM incubated for 24 hrs by MTT assay relative to control; format: toxicity, cell-based; conditions: read-out: Activity
Cell membrane [29] = test: Induction of cytoplasmic membrane depolarization in Pseudomonas aeruginosa assessed as increase in fluorescence intensity at 0.5 to 1 times of MIC by DiSC3-5 dye based fluorescence method; format: subcellular
Staphylococcus aureus [30] = test: Antibiofilm activity against methicillin-resistant Staphylococcus aureus assessed as increase in dead cell proportion at 0.5 times of MIC incubated overnight by SYTO9/PI staining based fluorescence analysis; format: functional, organism-based
Klebsiella pneumoniae [31] = test: Antibacterial activity against Klebsiella pneumoniae assessed as induction of cellular damage at MIC concentration incubated for 30 mins by SYTO9/PI staining based fluorescence microscopic analysis; format: functional, organism-based
U-937 = test: Immunomodulatory activity in human U-937 cells assessed as reduction in LPS-induced TNF-alpha expression level incubated for 24 hrs by radioimmunoprecipitation based dot-plot analysis; format: functional, cell-based; conditions: dose 5-10 µM
Cell membrane [32] = test: Induction of inner membrane permeabilization in Pseudomonas aeruginosa assessed as increase in fluorescence at 0.5 to 1 times of MIC incubated for 60 mins by PI staining based fluorescence analysis; format: subcellular
Staphylococcus aureus [33] = test: Antibacterial activity against patient-derived methicillin-resistant Staphylococcus aureus assessed as inhibition of bacterial growth at 25 to 100 uM incubated overnight by spotting assay; format: functional, organism-based; conditions: dose 25-100 µM
Pseudomonas aeruginosa [34] = test: Induction of morphological changes in Pseudomonas aeruginosa at MIC concentration incubated for 60 mins by SEM analysis; format: functional, organism-based
Staphylococcus aureus [35] = test: Induction of morphological changes in methicillin-resistant Staphylococcus aureus at MIC concentration incubated for 6 hrs by AFM analysis; format: functional, organism-based

Q: Which MBC (Klebsiella pneumoniae [1]) does the source give for H-FLPIIKWVKKFFWRWR-OH here?
A: 11 µM

Q: And the MBC (Staphylococcus aureus [2])?
A: 8 µM

Q: And the Activity (Escherichia coli [3])?
A: Active

Q: What about the Activity (Staphylococcus aureus [4]) of the same substance?
A: Active

Q: What about the Activity (Staphylococcus aureus [5]) of the same substance?
A: Active

Q: And the Activity (Klebsiella pneumoniae [6])?
A: ~62%

Q: What about the Activity (RAW264.7) of the same substance?
A: Active

Q: What about the Activity (Rattus norvegicus [7]) of the same substance?
A: Active

Q: And the viability at 24 h, 12.5 µM [8]?
A: 91.5%

Q: What about the viability at 24 h, 12.5 µM [9] of the same substance?
A: 74.3%

Q: What about the Activity (Pseudomonas aeruginosa [10]) of the same substance?
A: Active

Q: And the Activity (Pseudomonas aeruginosa [11])?
A: Tde

Q: What about the Activity (Klebsiella pneumoniae [12]) of the same substance?
A: ~70%

Q: And the MBC (Pseudomonas aeruginosa [13])?
A: 6 µM

Q: What about the Activity (Pseudomonas aeruginosa [14]) of the same substance?
A: <=72.73%

Q: What about the Activity (NMDF) of the same substance?
A: Active

Q: And the Activity (Klebsiella pneumoniae [15])?
A: 79.96%

Q: And the Activity (Pseudomonas aeruginosa [16])?
A: Active

Q: What about the Activity (Cell membrane [17]) of the same substance?
A: Active

Q: What about the Activity (Staphylococcus aureus [18]) of the same substance?
A: Active

Q: And the MBC (Escherichia coli [19])?
A: 4.5 µM

Q: What about the Activity (Lipopolysaccharide (LPS)) of the same substance?
A: Active

Q: And the Activity (Rattus norvegicus [20])?
A: Active

Q: What about the Activity (Staphylococcus aureus [21]) of the same substance?
A: Active

Q: What about the Activity (Escherichia coli [22]) of the same substance?
A: Active

Q: What about the Activity (Staphylococcus aureus [23]) of the same substance?
A: Active

Q: What about the Activity (Escherichia coli [24]) of the same substance?
A: Active

Q: And the half-life at 1000 µM [25]?
A: ~24 h

Q: What about the Activity (Klebsiella pneumoniae [26]) of the same substance?
A: Active

Q: What about the Activity (Klebsiella pneumoniae [27]) of the same substance?
A: Active

Q: And the viability at 24 h, 12.5 µM [28]?
A: > 90%

Q: And the Activity (Cell membrane [29])?
A: Active

Q: And the Activity (Staphylococcus aureus [30])?
A: inactive

Q: And the Activity (Klebsiella pneumoniae [31])?
A: Active

Q: And the Activity (U-937)?
A: Dose-Dependent Effect

Q: And the Activity (Cell membrane [32])?
A: Active

Q: What about the Activity (Staphylococcus aureus [33]) of the same substance?
A: Active

Q: And the Activity (Pseudomonas aeruginosa [34])?
A: Active

Q: What about the Activity (Staphylococcus aureus [35]) of the same substance?
A: Active
